Measured values from patent US6573279B1, “Isoquinoline derivatives or salts thereof” (priority 1999, dated 2003).
Structures can show the parent of a compound that is named as a salt.

Key:
[1] = Test on convulsion expression; format: in vivo, rat; settings: 40 mg/kg i.v. (tail vein), once; male Wister rats; observed about 1 hour
Protocol: 3. Test on Convulsion Expression
Male rats of a Wister strain having a body weight of 250 to 350 g under awaking were fixed in a cage, and the test compound was administered from a tail vein. The test compound was administered at a dose of either 20 mg/kg (i.v.) or 40 mg/kg (i.v.) once for each rat. […] The influence of the test compound on the spontaneous behavior of the rat was evaluated by the fact whether or not the convulsion was noted within the observed period.

[2] = test system: right atrium sample, spontaneous cardiac rate; assay: Test on cardiac rate lowering effect (spontaneously beating isolated right atrium in Magnus tube); settings: Cavia porcellus, 0.5 h; concentration lowering the spontaneous cardiac rate by 30%; guinea pig right atrium; data 30 minutes after addition
Protocol: 2. Test on Cardiac Rate Lowering Effect
The test on cardiac rate lowering effect was carried out by a method according to Walter, K., et al. Eur. J. Pharmacol., 104(1-2):9-18, 1984.
Male guinea pigs of a Hartley strain having a body weight of about 250 to 400 g were fainted away by knocking the head and killed by draining out the blood, and the heart was excised. A right atrium sample was prepared in a Tyrode's solution which was fully aerated with 95% oxygen and 5% carbon dioxide gas. The sample was applied to a hook made of stainless steel and suspended at a load tension of 1.0 g in a Magnus tube filled with a Tyrode's solution which was well aerated with 95% oxygen and 5% carbon dioxide gas, whereby the spontaneously pulsing cardiac rate was recorded. After suspending, the sample was allowed to stand for a stabilization period of 1 hour or more, the test compound was cumulatively added into a Magnus tube every 30 to 45 minutes and a concentration vs. effect curve was determined from the data after 30 minutes from the administration of the substance, whereby the effect was judged. The cardiac rate lowering effect was compared in terms of the concentration (EC30) of the substance which lowered the spontaneous cardiac rate to an extent of 30% from the data before the administration.

Row | SMILES | General Findings (convulsion) [1] | EC30 [2] | melting point
1 | COc1cc2c(cc1OC)CN(C(=O)[C@H]1CCCN(CCC(=O)Nc3ccc4c(c3)OCO4)C1)CC2 [Example 6, (+)-3-[(S)-3-(6,7-dimethoxy-1,2,3,4-tetrahydroisoquinoline-2-carbonyl)piperidino]-N-(3,4-methylenedioxyphenyl)propanamide D-tartrate] | No abnormal finding | 320 nM | 
2 | COc1cc2c(cc1OC)CN(C(=O)C1CCCN(CCC(=O)Nc3ccc4ncsc4c3)C1)CC2 (centres unmarked) [Example 14] | No abnormal finding | 470 nM | 
3 | COc1cc2c(cc1OC)CN(C(=O)C1CCCN(CCNC(=O)c3ccc(F)c(F)c3)C1)CC2 (centres unmarked) [Example 29] | No abnormal finding | 290 nM | 
4 | COc1cc2c(cc1OC)CN(C(=O)C1CCCN(CCNC(=O)c3ccc(F)cc3)C1)CC2 (centres unmarked) [Example 40] | No abnormal finding | 330 nM | 
5 | COc1cc2c(cc1OC)CN(C(=O)C1CCCN(CCNC(=O)c3ccc4c(c3)OCCO4)C1)CC2 (centres unmarked) [Example 30] | No abnormal finding |  | 
6 | COc1cc2c(cc1OC)CN(C(=O)[C@@H]1CCCN(CCNC(=O)c3ccc4c(c3)OCO4)C1)CC2 [Example 37] | No abnormal finding | 300 nM | 150 to 151 °C
7 | COc1cc2c(cc1OC)CN(C(=O)[C@@H]1CCCN(CCNC(=O)c3ccc(F)cc3)C1)CC2 [Example 49] | No abnormal finding | 290 nM | 
8 | COc1cc2c(cc1OC)CN(C(=O)C1CCCN(CCC(=O)Nc3ccc4c(c3)OCO4)C1)CC2 (racemic) [Example 2, (±)-3-[3-(6,7-dimethoxy-1,2,3,4-tetrahydroisoquinoline-2-carbonyl)piperidino]-N-(3,4-methylenedioxyphenyl)propanamide hydrochloride] | No abnormal finding | 300 nM | 
9 | COc1cc2c(cc1OC)CN(C(=O)[C@@H]1CCCN(CCC(=O)Nc3ccc4c(c3)OCO4)C1)CC2 [Example 5, (−)-3-[(R)-3-(6,7-dimethoxy-1,2,3,4-tetrahydroisoquinoline-2-carbonyl)piperidino]-N-(3,4-methylenedioxyphenyl)propanamide L-tartrate] | No abnormal finding | 380 nM | 
10 | COc1cc2c(cc1OC)CN(C(=O)[C@H]1CCCN(CCNC(=O)c3ccc(F)cc3)C1)CC2 [Example 50] | No abnormal finding | 310 nM | 
11 | COc1ccc(C(=O)NCCN2CCC=C(C(=O)N3CCc4cc(OC)c(OC)cc4C3)C2)cc1 [Example 47] | No abnormal finding |  | 153 to 154 °C
12 | COc1ccc(NC(=O)CCN2CCCC(C(=O)N3CCc4cc(OC)c(OC)cc4C3)C2)cc1 (racemic) [Example 4, (±)-3-[3-(6,7-dimethoxy-1,2,3,4-tetrahydroisoquinoline-2-carbonyl)piperidino]-N-(4-methoxyphenyl)propanamide hydrochloride] | No abnormal finding | 570 nM | 
13 | COc1ccc(C(=O)NCCN2CCCC(C(=O)N3CCc4cc(OC)c(OC)cc4C3)C2)cc1F (centres unmarked) [Example 27] | No abnormal finding | 410 nM | 
14 | COc1cc2c(cc1OC)CN(C(=O)C1CCCN(CCNC(=O)c3ccc4c(c3)OCO4)C1)CC2 (racemic) [Example 9, (±)-N-{2-[3-(6,7-dimethoxy-1,2,3,4-tetrahydrolsoquinoline-2-carbonyl)piperidino]ethyl}-3,4-methylenedioxybenzamide hydrochloride] | No abnormal finding | 270 nM | 
15 | COc1cc2c(cc1OC)CN(C(=O)[C@H]1CCCN(CCNC(=O)c3ccc4c(c3)OCO4)C1)CC2 [Example 38] | No abnormal finding | 290 nM | 154 to 155 °C
16 | COc1cc(C(=O)NCCN2CCCC(C(=O)N3CCc4cc(OC)c(OC)cc4C3)C2)ccc1C (centres unmarked) [Example 28] | No abnormal finding |  | 
17 | COc1cccc(C(=O)NCCN2CCCC(C(=O)N3CCc4cc(OC)c(OC)cc4C3)C2)c1 (racemic) [Example 10, (±)-N-{2-[3-(6,7-dimethoxy-1,2,3,4-tetrahydroisoquinoline-2-carbonyl)-piperidino]ethyl}-3-methoxybenzamide oxalate] | No abnormal finding | 270 nM | 
18 | COc1ccc(C(=O)NCCN2CCCC(C(=O)N3CCc4cc(OC)c(OC)cc4C3)C2)cc1C (centres unmarked) [Example 26] | No abnormal finding | 240 nM | 
19 | COc1cc2c(cc1OC)CN(C(=O)C1CCCN(CCC(=O)Nc3cccc(Cl)c3)C1)CC2 (centres unmarked) [Example 12] |  | 270 nM | 
20 | COc1cc2c(cc1OC)CN(C(=O)C1CCCN(CCC(=O)Nc3ccc(C)c(F)c3)C1)CC2 (centres unmarked) (as salt: HCl) [Example 16] |  |  | 183 to 185 °C
